Experimental data from patent US4798832A, “Pyrido[1,2-a]pyrimidine compounds, corresponding intermediates and use as SRS-A antagonists” (Tokyo Tanabe Company, Limited, priority 1986, dated 1989).
≈ marks a conversion by molar mass, not a printed value. Where a name gives a salt, the structure may show the parent alone. Values belong to the molecule of their own block, whether it stands above or below them.

Tests used:
[1] = In vitro test: antagonistic effect on leukotriene D4-induced contraction of excised guinea pig terminal ileum; format: cell-based, guinea pig (male, Hartley strain); conditions: guinea pig terminal ileum contraction, leukotriene D4 0.3 ng/ml, with atropine and mepyramine; for IC50: Cavia porcellus
Method: (§1) The antagonistic effect on leukotriene D4 of the present compounds [I] was tested by using the terminal ileum excised from a male guinea pig of the Hartley strain. Specifically, the terminal ileum was suspended, under aerated conditions, in 10 ml of Tyrode's solution containing 5×10^-7 M atropine and 1×10^-6 M mepyramine. Then, a test compound and leukotriene D4 (manufactured by Wako Junyaku Co., Ltd.) were successively added thereto with an interval of 30 seconds. After the lapse of 4 to 6 minutes, the degree of contraction of the ileum was measured with a Model TD-112S Isotonic Transducer (manufactured by Nippon Koden Co., Ltd.). The test compound and leukotriene D4 were used in such amounts as to give concentrations of 10^-9 to 10^-3 g/ml and 0.3 ng/ml, respectively.
(§2) The antagonistic effect on leukotriene D4 of each test compound was evaluated in terms of the concentration of the test compound at which the ileum contraction reaction induced by leukotriene D4 was inhibited by 50% (hereinafter referred to as IC50) Specifically, at varying concentrations of each test compound, the percent inhibition of contraction was calculated from the measured degree of contraction of the ileum according the following equation [formula] On the basis of the data thus obtained, a dose-response curve was prepared and used to determine the IC50 value of the test compound.

[2] = tested on: leukotriene D4; assay: as above; format: cell-based, guinea pig (male, Hartley strain); conditions: confirmatory experiment by the inventors; result in words
Method: as §1, §2

[3] = Toxicity test: acute toxicity (LD50) in mice; conditions: mouse, in vivo
Method: (§3) The acute toxicity (LD50) of several typical examples of the present compounds [I] was tested of 5-weeks-old male ddY strain mice and male SD straih rats. For this purpose, the compounds of Examples 2 and 4 were selected as typical examples. […] For rats, their LD50 values were not less than 4.0 g/kg when administered orally, and not less than 200 mg/kg when administered intravenously.

[4] = Toxicity test: acute toxicity (LD50) in rats; conditions: rat, in vivo
Method: as §3

- IC50 [1]: ≥ 10 µg/mL
Compound: O=C(O)c1cnc2c(OCc3ccccc3)cccn2c1=O [Compound A, 9-Benzyloxy-4-oxo-pyrido[1,2-a]pyrimidine-3-carboxylic acid, reference compound]
- antagonistic effect on SRS-A as represented by leukotriene D4 [2]: no antagonistic effect on SRS-A

- IC50 [1]: 0.03 µg/mL (≈ 0.0757 µM)
Compound: CCCc1c(OCc2cccn3c(=O)c(C(=O)O)cnc23)ccc(C(C)=O)c1O [Example 1, 9-(4-Acetyl-3-hydroxy-2-n-propylphenoxymethyl)-4-oxo-pyrido[1,2-a]pyrimidine-3-carboxylic acid]

Compound: CCCc1c(OCc2cccn3c(=O)c(CC(=O)O)cnc23)ccc(C(C)=O)c1O [Example 2, [9-(4-Acetyl-3-hydroxy-2-n-propylphenoxymethyl)-4-oxo-pyrido[1,2-a]pyrimidin-3-yl]acetic acid]
- LD50 ([3]; intravenous): ≥ 100 mg/kg
- LD50 ([3]; oral): ≥ 4000 mg/kg
- LD50 ([4]; intravenous): ≥ 200 mg/kg
- LD50 ([4]; oral): ≥ 4000 mg/kg
- IC50 [1]: 0.04 µg/mL (≈ 0.0975 µM)

- IC50 [1]: 0.8 µg/mL (≈ 1.88 µM)
Compound: CCCc1c(OCc2c(C)ccn3c(=O)c(CC(=O)O)cnc23)ccc(C(C)=O)c1O [Example 3, [9-(4-Acetyl-3-hydroxy-2-n-propylphenoxymethyl)-8-methyl-4-oxo-pyrido[1,2-a]pyrimidin-3-yl]acetic acid]

Compound: CCCc1c(OCc2cccn3c(=O)c(CCC(=O)O)cnc23)ccc(C(C)=O)c1O [Example 4, 3-[9-(4-Acetyl-3-hydroxy-2-n-propylphenoxymethyl)-4-oxo-pyrido[1,2-a]pyrimidin-3-yl]propionic acid]
- LD50 ([3]; intravenous): ≥ 100 mg/kg
- LD50 ([3]; oral): ≥ 4000 mg/kg
- LD50 ([4]; intravenous): ≥ 200 mg/kg
- LD50 ([4]; oral): ≥ 4000 mg/kg
- Antagonistic effect on leukotriene D4 IC50 [1]: 0.01 µg/mL

- IC50 [1]: 0.3 µg/mL (≈ 0.596 µM)
Compound: CCCc1c(OCc2cc(Br)cn3c(=O)c(CCC(=O)O)cnc23)ccc(C(C)=O)c1O [Example 5, 3-[9-(4-Acetyl-3-hydroxy-2-n-propylphenoxymethyl)-7-bromo-4-oxo-pyrido[1,2-a]pyrimidin-3-yl]propionic acid]

- IC50 [1]: 0.4 µg/mL (≈ 0.942 µM)
Compound: CCCc1c(OCc2ccc3ncc(CCC(=O)O)c(=O)n3c2)ccc(C(C)=O)c1O [Example 6, 3-[7-(4-acetyl-3-hydroxy-2-n-propylphenoxymethyl)-4-oxo-pyrido[1,2-a]pyrimidin-3-yl]propionic acid]

Compound: CCCc1c(OCc2cccn3c(=O)c(CCC(=O)O)cnc23)ccc(C(C)=O)c1O [Example 7, 3-[9-(4-Acetyl-3-hydroxy-2-n-propylphenoxymethyl)-4-oxo-pyrido[1,2-a]pyrimidin-3-yl]propionic acid potassium salt]
- Antagonistic effect on leukotriene D4 IC50 ([1]; potassium salt): 0.03 µg/mL
